Laboratory results from patent publication US11208388B2, “Certain chemical entities, compositions, and methods” (NeuPharma, Inc., priority 2016, dated 2021).

Legend:
[1] = molecular target: BTK (Homo sapiens (Human), UniProt Q06187); experiment: Z'-LYTE kinase inhibition assay against BTK; format: biochemical; settings: compound at 100 nM; ATP concentration at Km
Protocol: Inhibitory activities of compounds against BTK, EGFR T790M, EGFR L858R, and EGFR L858R/T790M were measured using Z′-LYTE® Method from Life Technologies as briefly described in the following.
Test Compounds are screened in […] DMSO (final) in the well. For 10 point titrations, 3-fold serial dilutions are conducted from the starting concentration. All ATP Solutions are diluted to a 4× working concentration in Kinase Buffer (50 mM HEPES pH 7.5, 0.01% BRIJ-35, 10 mM MgCl2, 1 mM EGTA). Peptide/Kinase Mixtures are diluted to a 2× working concentration in the appropriate Kinase Buffers as described below. • (i) Peptide/Kinase Mixtures for measurement of EGFR (ErbB1) L858R: • The 2×EGFR (ErbB1) L858R/Tyr 04 mixture is prepared in 50 mM HEPES pH 7.5, 0.01% BRIJ-35, 10 mM MgCl2, 4 mM MnCl2, 1 mM EGTA, 2 mM DTT. The final 10 μL Kinase Reaction consists of 0.2-1.68 ng EGFR (ErbB1) L858R and 2 μM Tyr 04 in 50 mM HEPES pH 7.5, 0.01% BRIJ-35, 10 mM MgCl2, 2 mM MnCl2, 1 mM EGTA, 1 mM DTT. After the 1 hour Kinase Reaction incubation, 5 μL of a 1:64 dilution of Development Reagent B is added. • (ii) Peptide/Kinase Mixtures for measurement of EGFR (ErbB1) T790M: The 2×EGFR (ErbB1) T790M/Tyr 04 mixture is prepared in 50 mM HEPES pH 6.5, 0.01% BRIJ-35, 10 mM MgCl2, 1 mM EGTA, 0.02% NaN3. The final 10 μL Kinase Reaction consists of 3.9-30.2 ng EGFR (ErbB1) T790M and 2 μM Tyr 04 in 50 mM HEPES pH 7.0, 0.01% BRIJ-35, 10 mM MgCl2, 1 mM EGTA, 0.01% NaN3. After the 1 hour Kinase Reaction incubation, 5 μL of a 1:64 dilution of Development Reagent B is added. • (iii) Peptide/Kinase Mixtures for measurement of EGFR (ErbB1) L858R/T790M: The 2×EGFR (ErbB1) T790M L858R/Tyr 04 mixture is prepared in 50 mM HEPES pH 6.5, 0.01% BRIJ-35, 10 mM MgCl2, 1 mM EGTA, 0.02% NaN3. The final 10 μL Kinase Reaction consists of 0.38-4.22 ng EGFR (ErbB1) T790M L858R and 2 μM Tyr 04 in 50 mM HEPES pH 7.0, 0.01% BRIJ-35, 10 mM MgCl2, 1 mM EGTA, 0.01% NaN3. After the 1 hour Kinase Reaction incubation, 5 μL of a 1:64 dilution of Development Reagent B is added. • (iv) Peptide/Kinase Mixtures for measurement of BTK: The 2×BTK/Tyr 01 mixture is prepared in 50 mM HEPES pH 7.5, 0.01% BRIJ-35, 10 mM MgCl2, 1 mM EGTA. […]
Reaction starts by 30-second shaking of mixture consisting of 2.5 μL 4× test compound, 5 μL 2× kinase reaction mixture and 2.5 μL 4×ATP Solution on Bar-coded Corning, low volume NBS, black 384-well plate (Corning Cat. #3676). […] Finally fluorescence is read by plate reader. […]
To determine IC50 of a compound against a kinase, a series of concentrations of the compound were tested for the inhibition. IC50 was calculated by plotting the concentration of compound vs the percentage of inhibition in treated wells using GraphPad Prism 5. […]

[2] = tested on: OCI-LY10 cells; experiment: OCI-Ly10 cell proliferation, Alamar Blue (resazurin), 72 hours; format: cell-based
Protocol: OCI-Ly10 cells were cultured in Iscove's DMEM supplemented with 20% fetal bovine serum and IX penicillin/streptomycin/glutamine. The cells were maintained in T175 flasks under 5% CO2 in a 37° C. humidified incubator for 5 days prior to plating and assay.
Cells were pooled by centrifugation (200 ref, 8 minutes) and resuspended in fresh medium to a concentration of 2.00E+05 cells/ml. 200 μl of the cell suspension was added to each well (40,000 cells/well) of a black-walled 96 well plate to which 1 μl of compound (n=3 per concentration) in 100% DMSO (0.5% final concentration) was added per well. Vehicle and cell free wells were also included in the assay. The dosed cells were cultured under normal conditions for 72 hours.
Cell proliferation is measured using the dye Alamar Blue (resazurin). Resazurin is reduced to resorufin by cellular enzymes and is fluorescent (544 nm excitation, 612 nm emission). Fluorescence intensity is proportional to cell number. Resazurin was prepared in PBS to a stock concentration of 440 μM. 40 μl of the 440 μM resazurin stock solution was added 3 hours prior to the 72 hour termination of the assay. The plate was returned to normal culture conditions and fluorescence measurements were collected using a Cytation3 multimode plate reader (Biotek) at 72 hours.
The scale utilized in Table 8 is as follows: ++ less than 50 nM and + greater than 50 nM.

Sequence of BTK (Q06187 whole entry): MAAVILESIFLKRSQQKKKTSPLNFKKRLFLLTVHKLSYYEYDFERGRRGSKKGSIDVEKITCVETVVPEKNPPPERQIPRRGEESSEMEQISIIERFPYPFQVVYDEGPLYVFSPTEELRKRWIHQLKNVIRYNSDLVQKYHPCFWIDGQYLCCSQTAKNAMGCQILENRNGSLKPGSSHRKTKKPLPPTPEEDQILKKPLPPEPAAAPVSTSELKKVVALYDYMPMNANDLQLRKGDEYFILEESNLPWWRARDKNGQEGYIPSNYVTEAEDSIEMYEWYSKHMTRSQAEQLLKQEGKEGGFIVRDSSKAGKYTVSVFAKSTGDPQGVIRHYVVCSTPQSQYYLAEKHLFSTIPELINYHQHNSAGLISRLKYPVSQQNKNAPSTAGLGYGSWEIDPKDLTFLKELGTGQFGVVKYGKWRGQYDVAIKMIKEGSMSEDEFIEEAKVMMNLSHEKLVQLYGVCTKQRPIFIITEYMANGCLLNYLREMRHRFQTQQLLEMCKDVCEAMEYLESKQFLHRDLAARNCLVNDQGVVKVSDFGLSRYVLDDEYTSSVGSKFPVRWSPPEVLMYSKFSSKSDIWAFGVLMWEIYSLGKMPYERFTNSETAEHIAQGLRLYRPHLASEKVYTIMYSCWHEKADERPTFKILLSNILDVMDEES

| Structure (SMILES) | % Inhibition against BTK [1] | IC50 [2] [nM] |
| --- | --- | --- |
| C=CC(=O)Nc1cccc(-c2cc(-c3ccc(C(=O)Nc4ccccc4)nc3)cc3cnc(N)nc23)c1 [Example C059, 5-(8-(3-acrylamidophenyl)-2-aminoquinazolin-6-yl)-N-phenylpicolinamide] | + (less than 50% inhibition) | – |
| C=CC(=O)N1CCC(c2cc(-c3ccc(C(=O)Nc4cccc(F)c4)nc3)cc3cncnc23)C1 (stereo not drawn) [Example C097, 5-(8-(1-acryloylpyrrolidin-3-yl)quinazolin-6-yl)-N-(3-fluorophenyl)picolinamide] | + (less than 50% inhibition) | – |
| C=CC(=O)Nc1cccc(-c2cc(-c3cccnc3)cc3cnc(N)nc23)c1 [Example C035, N-(3-(2-amino-6-(pyridin-3-yl)quinazolin-8-yl)phenyl)-acrylamide] | ++ (more than 50% inhibition) | > 50 |
| C=CC(=O)Nc1cccc(-c2cc(-c3ccc(Oc4ncccc4F)cc3F)cc3cncnc23)c1 [Example C105, N-(3-(6-(2-fluoro-4-((3-fluoropyridin-2-yl)oxy)-phenyl)quinazolin-8-yl)-phenyl)acrylamide] | ++ (more than 50% inhibition) | < 50 |
